Test results: patent US10717758B2, “D-amino acid compounds for liver disease” (priority 2012, dated 2020)
Values belong to the molecule of their own block, whether it stands above or below them.

Legend:
Zluc cells = assay: Cytotoxicity evaluation in Zluc cells (CellTiter-Blue); assay type: cell-based, human; settings: read-out: HCV Replicon CC50
Experimental: For cytotoxicity evaluation, Zluc cells were treated with compound as described herein, and cell viability was monitored using the CellTiter-Blue Cell Viability Assay (Promega) by adding 20 μL of the assay solution to each well. The plates were then incubated at 37° C./5% CO2 for at least 3 hours.

[1] = biological target: T1, carboxylesterase 1 (CES1) (Homo sapiens, UniProt P23141); assay: Hydrolysis of prodrugs by Carboxylesterase 1; assay type: in vitro ADME; settings: for CES1 hydrolysis: 100 μM compound, 37° C., pH 7.5
T1 construct: purchased R & D Systems (Minneapolis, Minn.)
T1 sequence (P23141 18-567): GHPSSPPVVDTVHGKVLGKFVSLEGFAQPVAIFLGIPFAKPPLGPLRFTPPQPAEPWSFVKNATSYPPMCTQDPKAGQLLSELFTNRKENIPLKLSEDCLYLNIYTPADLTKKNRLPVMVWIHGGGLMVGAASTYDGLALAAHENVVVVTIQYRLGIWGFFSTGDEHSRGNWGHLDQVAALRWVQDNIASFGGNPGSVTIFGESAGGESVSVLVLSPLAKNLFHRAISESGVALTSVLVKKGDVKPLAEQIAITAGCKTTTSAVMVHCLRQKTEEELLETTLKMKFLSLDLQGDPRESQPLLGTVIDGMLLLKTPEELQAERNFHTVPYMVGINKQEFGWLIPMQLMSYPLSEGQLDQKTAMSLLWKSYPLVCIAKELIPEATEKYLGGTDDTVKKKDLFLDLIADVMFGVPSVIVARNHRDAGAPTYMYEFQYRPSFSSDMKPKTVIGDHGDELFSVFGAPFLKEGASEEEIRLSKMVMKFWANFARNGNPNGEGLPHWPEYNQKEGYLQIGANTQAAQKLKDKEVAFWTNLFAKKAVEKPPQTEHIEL
Experimental: CES1 assay was performed at 37° C. in the reaction mixture containing 50 mM Tris/HCl buffer pH 7.5 and 100 μM of the compound. Reaction was started by addition of the CES1 to the final concentration 0.01 μg/mL. 100 μL aliquots were taken after 0.5 min, 3 hrs and 21 hrs of the incubation and the reaction was stopped by mixing with 100 μl of the ice-cold methanol prior to HPLC analysis.
Samples were analyzed by HPLC using 5 μC-18, 4.6×250 mm Phenomenex® Columbus column (Phenomenex USA, Calif.). The mobile phase consisted of buffer A (25 mM potassium phosphate with 5 mM tetrabutylammonium dihydrogen phosphate pH 6.3) and buffer B (100% methanol).

Huh-7 cells = assay: Release of active metabolite in Huh-7 cells; assay type: in vitro ADME, human
Experimental: Huh-7 cells were plated in 1 mL culture medium (DMEM, containing glucose, L-glutamine and sodium pyruvate, 10% FBS, 100 IU/mL penicillin, 100 μg/mL streptomycin, 2 mM GlutaMAX, 1% MEM non-essential amino acids) at the concentration 0.8, 0.4 and 0.2 million cells per well on 6 well plates for 24, 48 and 72 hr treatment, respectively. Plated cells were incubated overnight at 37° C. in an incubator.
The following morning test compound was diluted to 20 μM from a stock solution in DMSO in fresh culture medium pre-warmed to 37° C. and 1 mL of the solution/well was added to cells. A final medium volume per well was 2.0 mL, test compound concentration in well was 10 μM and final DMSO concentration was 0.1%.
After 24, 48 or 72 hr, the medium was carefully removed and cell monolayers were washed twice with 2 mL ice-cold PBS per well. Following the last wash, all PBS was carefully removed and 1.0 mL of extraction solution (ice-cold 70% methanol) added. The plate was tightly covered with Parafilm, plastic plate cover and Parafilm again and an intracellular content was extracted at −20° C. for 24 hr.
After 24 hr the extracts were transferred into polypropylene microfuge tubes and dry on a refrigerated centrivap concentrator. Dry residues were reconstituted in 250 μL of HPLC-grade water and centrifuged at 16,000×g for 10 min. Aliquots (100 μL each) of the supernatants were transferred into a 96 well plate and internal standard (4 ng/mL final concentration) was added as the internal standard (IS) for LC-MS/MS analysis.

cathepsin A (CatA) = biological target: T2, cathepsin A (CatA) (Homo sapiens, UniProt P10619); assay: Hydrolysis of prodrugs by Cathepsin A; assay type: in vitro ADME
T2 sequence (P10619 29-326 limits assumed): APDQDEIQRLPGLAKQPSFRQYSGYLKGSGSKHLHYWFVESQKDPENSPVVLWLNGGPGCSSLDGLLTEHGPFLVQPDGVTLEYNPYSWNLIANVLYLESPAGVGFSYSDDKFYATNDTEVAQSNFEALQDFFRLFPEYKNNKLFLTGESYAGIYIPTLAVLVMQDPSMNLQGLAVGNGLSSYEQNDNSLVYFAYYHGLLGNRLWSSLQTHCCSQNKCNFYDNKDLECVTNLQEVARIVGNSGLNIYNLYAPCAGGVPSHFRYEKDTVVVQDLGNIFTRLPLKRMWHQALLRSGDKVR
T2 sequence (P10619 327-480 limits assumed): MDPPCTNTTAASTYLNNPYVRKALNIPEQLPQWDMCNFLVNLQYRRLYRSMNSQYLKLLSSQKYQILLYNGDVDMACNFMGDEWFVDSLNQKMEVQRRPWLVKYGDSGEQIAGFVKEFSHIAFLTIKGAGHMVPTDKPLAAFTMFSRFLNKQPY
Experimental: CatA, cathepsin L (CatL) and CES1 were purchased from R & D Systems (Minneapolis, Minn.). Prior to the enzymatic hydrolysis reactions, CatA was activated according to the manufacturer's instruction. Briefly, CatA (0.05 μg/μL) was incubated with CatL (0.005 μg/μL) for 30 min at 37° C. in 25 mM MES pH 6.0 containing 5 mM DTT. The reaction was stopped by addition of the CatL specific inhibitor E64 (10 μM).
The CatA assay was performed at 37° C. The reaction mixture contained 25 mM MES buffer pH 6.0, 100 mM NaCl, 4 mM DTT and 100 μM of the compound. The reaction was started by addition of the activated CatA enzyme to a final concentration of 0.005 μg/μL. […] Reactions were stopped by mixing the sample with an equal volume of ice-cold methanol, and were loaded on a HPLC for analysis.

[2] = Plasma nucleoside and liver triphosphate PK after single oral dose (Example 4); assay type: in vivo, CD-1 mice; settings: at 1 μmol/kg, single oral dose 10 mg/kg in PEG 200
Experimental: Plasma samples were analyzed for nucleoside by LC-MS/MS. The internal standard (IS) was either 2′-MeG-D3 or tiapride. For protein precipitation and extraction, each plasma sample (50 μL) was treated with 500 μL of 0.2% formic acid in acetonitrile and 20 μL of the internal standard working solution. After vortexing and centrifugation, 500 μL of the sample extracts were transferred to a new plate, dried under N2 at ˜28° C. and reconstituted with 75 μL of 0.2% FA in water. The extracts were chromatographed on an Aquasil C18 column using a gradient system of 0.2% formic acid in water and acetonitrile. The analytes were detected and quantified by tandem mass spectrometry in positive ion mode on an MDS Sciex API5000 equipped with a Turbo Ionspray® interface. The calibration range was 0.500 (LLOQ) to 200 ng/mL in mouse plasma.
(§1) Internal standard solution was added to the homogenate followed by neutralization with 20% ammonium hydroxide solution and addition of 500 μL 1% formic acid. The tissue samples were extracted by weak anion exchange solid phase extraction (SPE). Post extraction, the eluates were evaporated under nitrogen, followed by reconstitution before injection onto the LC-MS/MS system.

HCV genotype 1b replicon = assay: HCV replicon assay; assay type: cell-based; settings: Zluc (Huh-7-derived) cells, luciferase reporter, 72 hours; read-out: HCV Replicon EC50
Experimental: Huh-7-derived cell line (Zluc) that harbors an HCV genotype 1b replicon and a luciferase reporter gene was grown in Dulbecco's Modified Eagle Medium (DMEM) supplemented with 10% fetal bovine serum, 2 mM GlutaMAX, 1% MEM nonessential amino acids, 100 IU/mL penicillin, 100 μg/mL streptomycin, and 0.5 mg/mL Geneticin® (G418). For dose response testing the cells were seeded in 96-well plates at 7.5×10^3 cells per well in a volume of 50 μL, and incubated at 37° C./5% CO2. Drug solutions were made up freshly in Huh-7 media as 2× stocks. Ten additional 5-fold dilutions were prepared from these stocks in DMEM without G418. At least three hours after Zluc cells were seeded, drug treatment was initiated by adding 50 μL of drug dilutions to the plates in duplicate. Final concentrations of drug ranged from 100 μM to […]. Cells were then incubated at 37° C./5% CO2. Alternatively, compounds were tested at two concentrations (1 μM and 10 μM). […] For this, media was removed from the plates via gentle tapping. Fifty microliters of ONE-glo luciferase assay reagent was added to each well. The plates were shaken gently for 3 min at room temperature and luminescence was measured on a Victor^3 V 1420 multilabel counter (Perkin Elmer) with a 1 second read time using a 700 nm cut-off filter. The EC50 values were calculated from dose response curves from the resulting best-fit equations determined by Microsoft Excel and XLfit 4.1 software. When screening at two fixed concentrations, the results were expressed as % inhibition at 1 μM and 10 μM.

[3] = Liver triphosphate and plasma prodrug and nucleoside PK after single oral dose (Example 5); assay type: in vivo, Cynomolgus monkeys; settings: oral 10 mg/kg
Experimental: For each compound, a single oral dose at 10 mg/kg in PEG 200 (dose volume 3 mL/kg) was administered to cynomolgus monkeys. Untreated animals were used for the collection of control liver. Plasma samples were collected at 0.5, 1, 2, 4, 6, 8, 12 and 24 hours for compound 37, diastereomer 2.
Plasma samples were analyzed for the prodrug and nucleoside by LC-MS/MS. For protein precipitation and extraction, each plasma sample (50 μL) was treated with 500 μL of 0.2% formic acid in acetonitrile and 20 μL of an appropriate internal standard working solution. After vortexing and centrifugation, 500 μL of the sample extracts were transferred to a new plate, dried under N2 at ˜28° C. and reconstituted with 75 μL of 0.2% FA in water. The extracts were chromatographed on an Aquasil C18 column using a gradient system of 0.2% formic acid in water and acetonitrile. The analytes were detected and quantified by tandem mass spectrometry in positive ion mode on an MDS Sciex API4000 equipped with a Turbo Ionspray® interface.
as §1, with “Liver samples were analyzed for the relevant nucleoside triphosphate by LC-MS/MS. […] Appropriate internal” for “Internal”

Structure (SMILES): CCCCOC(=O)[C@@H](C)NP(=O)(OC[C@H]1O[C@@H](n2ccc(=O)[nH]c2=O)[C@](C)(Cl)[C@@H]1O)Oc1ccccc1 (single isomer, unassigned) [202i Diastereomer 1]
CC50 (Zluc cells): > 50 µM

Structure (SMILES): C[C@@H](NP(=O)(OC[C@H]1O[C@@H](n2ccc(=O)[nH]c2=O)[C@](C)(Cl)[C@@H]1O)Oc1ccccc1)C(=O)OCc1ccccc1 (single isomer, unassigned) [205i Diastereomer 1]
CC50 (Zluc cells): > 50 µM

Structure (SMILES): CC(C)OC(=O)[C@H](C)N[P@](=O)(OC[C@H]1O[C@@H](n2ccc(=O)[nH]c2=O)[C@](C)(F)[C@@H]1O)Oc1ccccc1 (single isomer, unassigned) [GS-7977, reference compound]
Hydrolysis by CES1 [1]: hydrolyzed
CES1 hydrolysis ([1]; 3 h): 12%/3 h;
CES1 hydrolysis ([1]; 21 h): 15%/21 h
Huh-7 AUC0-72 (Huh-7 cells; Table 7): 63555 pmol*hr/10^6cells
Hydrolysis by CatA (cathepsin A (CatA)): hydrolyzed
CatA hydrolysis (cathepsin A (CatA); @ 18 h, 100 μM compound, 37° C., pH 6.0): 100% @
CatA cleavage efficiency relative to the RP diastereoisomer (cathepsin A (CatA); GS-7977 (SP) versus RP diastereoisomer): 10 times

Structure (SMILES): CC(C)OC(=O)[C@H](C)NP(=O)(OC[C@H]1O[C@@H](n2ccc(=O)[nH]c2=O)[C@](C)(Cl)[C@@H]1O)Oc1ccccc1 (single isomer, unassigned; diastereomer 1) [40ii Diastereomer 1]
Huh-7 TP AUC (Huh-7 cells; 10 μM test compound): 4380 pmol.hr/mill cells
Huh-7 TP Cmax (Huh-7 cells; 10 μM test compound): 123 pmol/mill cells
Huh-7 TP (24 hr) (Huh-7 cells; 10 μM test compound, 24 hr): 25
Huh-7 TP (48 hr) (Huh-7 cells; 10 μM test compound, 48 hr): 96
Huh-7 TP (72 hr) (Huh-7 cells; 10 μM test compound, 72 hr): 123
Ms Plasma nucleoside AUC [2]: 0.00349 M·s
Cmax ([2]; read-out: Ms Plasma nucleoside Cmax): 0.086 µM
CC50 (Zluc cells): > 50 µM
EC50 (HCV genotype 1b replicon): < 0.25 µM

Nucleoside triphosphate in Liver C6 ([3]; 6 hours post dose, normalized to 1 μmol/kg dose): 1500 pmol/g
Nucleoside triphosphate in Liver Tmax [3]: 12 h
Plasma nucleoside Tmax [3]: 4 h
Plasma prodrug Tmax [3]: 4 h
Nucleoside triphosphate in Liver AUC0-24 ([3]; normalized to 1 μmol/kg dose): 29000 pmol·h/g
Nucleoside triphosphate in Liver Cmax ([3]; normalized to 1 μmol/kg dose): 1700 pmol/g
Plasma nucleoside AUC0-24 ([3]; normalized to 1 μmol/kg dose): 650 nM·h
Plasma prodrug AUC0-24 ([3]; normalized to 1 μmol/kg dose): 4000 nM·h
Cmax ([3]; normalized to 1 μmol/kg dose, read-out: Plasma nucleoside Cmax): 0.051 µM
Cmax ([3]; normalized to 1 μmol/kg dose, read-out: Plasma prodrug Cmax): 0.84 µM
Structure (SMILES): CC(C)OP1(=O)OC[C@H]2O[C@@H](n3ccc(=O)[nH]c3=O)[C@](C)(Cl)[C@@H]2O1 (single isomer, unassigned; diastereomer 2) [37 Diastereomer 2]

Structure (SMILES): CCCCOC(=O)[C@@H](C)NP(=O)(OC[C@H]1O[C@@H](n2ccc(=O)[nH]c2=O)[C@](C)(Cl)[C@@H]1O)Oc1ccccc1 (single isomer, unassigned; diastereomer 2) [202i Diastereomer 2]
Ms Plasma nucleoside AUC [2]: 0.00612 M·s
CC50 (Zluc cells): > 50 µM
EC50 (HCV genotype 1b replicon): 0.25 to 1 µM

Structure (SMILES): C[C@@H](NP(=O)(OC[C@H]1O[C@@H](n2ccc(=O)[nH]c2=O)[C@](C)(Cl)[C@@H]1O)Oc1ccccc1)C(=O)OCc1ccccc1 (single isomer, unassigned; diastereomer 2) [205i Diastereomer 2]
Ms Plasma nucleoside AUC [2]: 0.00612 M·s
CC50 (Zluc cells): > 50 µM
EC50 (HCV genotype 1b replicon): 0.25 to 1 µM
